Laboratory results taken from US20110189251A1, “COMPOUNDS AND COMPOSITIONS FOR THE CONTROL OF PESTS” (priority 2007, published 2011).

What was measured:
[1] = tested on: Eastern subterranean termite, Reticulitermes flavipes; assay: Killing activity in termites, compound pipetted onto back; format: in vivo; conditions: adults, 1 μL
[2] = tested on: adult German cockroaches, Blattella germanica; assay: Insecticidal action, time-to-death of adult German cockroaches after 10 μL on the back; format: in vivo; conditions: regardless of male or female
Procedure: Material and Methods: Ten μL of either BioUD 10, pure 2-Undecanone, or Raid were separately applied to the backs (thorax and wings) of adult German cockroaches, Blattella germanica. Insects were separately placed into FLUON®-treated diet cups (Vol.=30 mL, lower diam.=3 cm, height=4 cm) to prevent escape of treated specimens.

## CCCCCCCCCC(C)=O [2-Undecanone, 2-undecanone]
[1]; castes w and s together
  Time-to-death (sec), mean: 171.5 s
[1]; caste s, single insects
  Time-to-death: 146 s
[2]
  speed of kill relative to the formulated product (BioUD10): ~2 ×
